This is an account of results in patent US8093232B2, “2α-methyl-19-nor-(20S)-1α-hydroxy-bishomopregnacalciferol and its uses” (Wisconsin Alumni Research Foundation, priority 2004, dated 2012).

The test system of assay [1] is vitamin D-deficient rats. The assay is described as follows: Intestinal calcium transport (everted gut sac) in vitamin D-deficient rats. The assay is classed as in vivo, rat. The following applies: for intestinal calcium transport: everted gut sac, FIG. 5. The method, then: (§1) Intestinal Calcium Transport and Bone Calcium Mobilization
(§2) Male, weanling Sprague-Dawley rats were placed on Diet 11 (0.47% Ca) diet+AEK for one week followed by Diet 11 (0.02% Ca)+AEK for 3 weeks. The rats were then switched to a diet containing 0.47% Ca for one week followed by two weeks on a diet containing 0.02% Ca. Dose administration began during the last week on 0.02% calcium diet. Four consecutive ip doses were given approximately 24 hours apart. Twenty-four hours after the last dose, blood was collected from the severed neck and the concentration of serum calcium determined as a measure of bone calcium mobilization. The first 10 cm of the intestine was also collected for intestinal calcium transport analysis using the everted gut sac method.

Assay [2] concerns Human promyelocytic leukemia (HL60) cells. The assay can be described thus: HL-60 cell differentiation (nitro blue tetrazolium reduction). It is filed as cell-based. The following applies: FIG. 2; for EC50: HL60 cells, 4 days, NBT reduction. How it is done: The study drugs were dissolved in ethanol and the concentrations determined using UV spectrophotometry. Serial dilutions were prepared so that a range of drug concentrations could be tested without changing the final concentration of ethanol (≦0.2%) present in the cell cultures.
Human promyelocytic leukemia (HL60) cells were grown in RPMI-1640 medium containing 10% fetal bovine serum. The cells were incubated at 37° C. in the presence of 5% CO2.
HL60 cells were plated at 1.2×10^5 cells/ml. Eighteen hours after plating, cells in duplicate were treated with drug. […] The percentage of differentiated cells was determined by counting a total of 200 cells and recording the number that contained intracellular black-blue formazan deposits. Verification of differentiation to monocytic cells was determined by measuring phagocytic activity (data not shown).

For assay [3], the system named is vitamin D-deficient rats. The assay is described as follows: Bone calcium mobilization (serum calcium) in vitamin D-deficient rats. The assay is classed as in vivo, rat. The method, then:
as §1, §2

The test system of assay [4] is 24-hydroxylase (24 Ohase) gene promoter. The assay can be described thus: In vitro transcription assay (24-hydroxylase promoter luciferase reporter in ROS 17/2.8 bone cells). The assay is classed as cell-based. The following applies: FIG. 3. The method, then: In Vitro Transcription Assay
Transcription activity was measured in ROS 17/2.8 (bone) cells that were stably transfected with a 24-hydroxylase (24 Ohase) gene promoter upstream of a luciferase reporter gene (Arbour et al., 1998). Cells were given a range of doses. Sixteen hours after dosing the cells were harvested and luciferase activities were measured using a luminometer.
RLU=relative luciferase units.
Background: A reporter such as luciferase makes a cellular process visible.

The target of assay [5] is T1, full-length recombinant rat vitamin D receptor (Rattus norvegicus, UniProt P13053).
T1 construct: Full-length recombinant rat receptor was expressed in E. coli BL21 (DE3) Codon Plus RIL cells; histidine tag (C); made in house; host or cells: E. coli BL21 (DE3) Codon Plus RIL
T1 sequence (P13053 1-423): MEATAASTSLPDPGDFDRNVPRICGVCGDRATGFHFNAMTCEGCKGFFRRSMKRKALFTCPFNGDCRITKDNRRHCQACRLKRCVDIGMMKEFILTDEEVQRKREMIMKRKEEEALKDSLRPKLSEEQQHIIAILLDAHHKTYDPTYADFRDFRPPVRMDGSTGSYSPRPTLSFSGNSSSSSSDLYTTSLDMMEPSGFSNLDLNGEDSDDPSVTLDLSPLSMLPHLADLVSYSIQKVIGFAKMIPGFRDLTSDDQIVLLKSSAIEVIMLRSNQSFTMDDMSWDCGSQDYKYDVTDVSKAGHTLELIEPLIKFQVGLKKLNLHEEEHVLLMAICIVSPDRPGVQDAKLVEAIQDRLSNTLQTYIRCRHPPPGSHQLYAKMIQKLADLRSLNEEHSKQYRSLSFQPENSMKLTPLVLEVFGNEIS
The assay is described as follows: Vitamin D receptor competitive binding with [3H]-1,25(OH)2D3. The settings on record: full-length recombinant rat VDR, FIG. 1. An excerpt: Vitamin D Receptor Binding
Full-length recombinant rat receptor was expressed in E. coli BL21 (DE3) Codon Plus RIL cells and purified to homogeneity using two different column chromatography systems. The first system was a nickel affinity resin that utilizes the C-terminal histidine tag on this protein. The protein that was eluted from this resin was further purified using ion exchange chromatography (S-Sepharose Fast Flow). Aliquots of the purified protein were quick frozen in liquid nitrogen and stored at −80° C. until use. For use in binding assays, the protein was diluted in TEDK50 (50 mM Tris, 1.5 mM EDTA, pH7.4, 5 mM DTT, 150 mM KCl) with 0.1% Chaps detergent. The receptor protein and ligand concentration were optimized such that no more than 20% of the added radiolabeled ligand was bound to the receptor.
Radiolabeled and unlabeled ligands were added to 100 mcl of the diluted protein at a final ethanol concentration of ≦10%, mixed and incubated overnight on ice to reach binding equilibrium. The following day, 100 mcl of hydroxylapatite slurry (50%) was added to each tube and mixed at 10-minute intervals for 30 minutes. The hydroxylapaptite was collected by centrifugation and then washed three times with Tris-EDTA buffer (50 mM Tris, 1.5 mM EDTA, pH 7.4) containing 0.5% Titron X-100. […] Total binding was determined from the tubes containing only radiolabeled ligand.

As for `C=C1/C(=C\C=C2/CCC[C@]3(C)[C@@H]([C@H](C)CCCC(C)(C)O)CC[C@@H]23)C[C@@H](O)C[C@@H]1O` [1,25(OH)2D3, 1α,25-dihydroxyvitamin D3, reference compound], the intestinal calcium transport result in assay [1] (260 pmol/day) is reported as “promotes a significant increase”. In assay [2], this compound came in with an EC50 of 3.6 nM. The “serum calcium levels (bone calcium mobilization)” value in assay [3] (rats on 0.02% Ca diet, 4 consecutive ip doses, all dosages, FIG. 4) is “increased serum calcium levels at all dosages”.

Turning to `CCC(C)C1CCC2C(=CC=C3CC(O)C(C)C(O)C3)CCCC21C` [2α-methylbisP, 2α-methyl-19-nor-(20S)-1α-hydroxy-bishomopregnacalciferol], in assay [4], the “transcriptional activity in bone cells compared to 1α,25-dihydroxyvitamin D3” value is reported as “about the same transcriptional activity”. Also, the EC50 in assay [4] (ROS 17/2.8 cells, 24-OHase promoter-luciferase, 16 h, read-out: EC50, transcriptional activity in bone cells) came to 4.4 nM; in assay [2] (Homo sapiens, HL-60, 96 h) it was 37 nM. In addition, in assay [5], the “binding to the receptor as compared to the standard 1,25-(OH)2D3” value was “bound slightly less”. In assay [5] (read-out: Ki, competition with [3H]-1,25(OH)2D3 for binding to the vitamin D receptor), the Ki was found to be 1.6 nM. In addition, the intestinal calcium transport entry is reported as “does not promote intestinal calcium transport” in assay [1] (87 pmol/day, 260 pmol/day or 780 pmol/day) and “significant intestinal calcium transport activity was recorded” in assay [1] (2340 pmol/day). In assay [1] (FIG. 5, overall), the “activity in stimulating intestinal calcium transport as compared to 1,25(OH)2D3” value is reported as “very little activity”. Besides, the “potency on HL-60 cell differentiation compared to 1,25(OH)2D3” value in assay [2] is recorded as “almost as potent as 1,25(OH)2D3”. Besides, the “mobilization of bone calcium” value was “did not result in mobilization of bone calcium” in assay [3] (87 pmol/day for 4 consecutive days, rats on 0.02% Ca diet, FIG. 4); “without any substantial effect” in assay [3] (260 pmol/day, 780 pmol/day and 7020 pmol/day, rats on 0.02% Ca diet, FIG. 4). In assay [3] (FIG. 4, overall), the “bone calcium mobilization activity as compared to 1,25(OH)2D3” value is recorded as “very little bone calcium mobilization activity”.

By EC50 is commonly meant the concentration giving half of the maximal effect. One may read the Ki as the dissociation constant of the complex between target and ligand, obtained from inhibition or displacement.
